One molecule from patent publication US20130236480A1, “TRANSGLUTAMINASE 2 INHIBITORS FOR USE IN THE PREVENTION OR TREATMENT OF RAPIDLY PROGRESSIVE GLOMERULONEPHRITIS” (priority 2010, published 2013) can be followed below.

In this experiment the test system is primary culture of mouse podocytes. Kind of experiment: Wound assay of podocyte migration. In kind it is cell-based. Particulars: 100 μM MDC in DMSO, differentiated podocytes, p<0.05 vs. vehicle alone (n=3). How it is done: FIG. 4: Distance of migration of differentiated podocytes within 20 h in the wound assay. A wound assay was used to assess podocyte migration. Differentiated cells were seeded in a 35 mm μ-Dish (Ibidi) forming two confluent monolayers separated by a silicon insert of 500 μm width. After 1 day, the silicon insert was removed and 100 μM of MDC (monodansylcadaverin, Sigma-Aldrich #D4008) diluted in DMSO, a TG2 inhibitor, was added or not. Cells were fixed 20 h later and the distance between the two monolayers was measured. *p<0.05 vs. vehicle alone (n=3 per condition).
In vivo podocytes are terminally differentiated and stationary cells. During crescent formation in anti-GBM GN in mice, however, podocytes assume a migratory phenotype, attach with their apical membrane onto the parietal basement membrane and start to proliferate.

On to `CN(C)c1cccc2c(S(=O)(=O)NCCCCCN)cccc12` [monodansylcadaverine], for which the “Migration of podocytes (distance of migration within 20 h in the wound assay)” value is on record as “significantly blunted”.
